Test results published in article PMC7232172, “APETx-Like Peptides from the Sea Anemone Heteractis crispa, Diverse in Their Effect on ASIC1a and ASIC3 Ion Channels” (Toxins, 2020).
Like-named read-outs stand apart in the source and are kept apart here. Bridges are numbered along the chain shown (N, C = ends). Where no end group is shown, it is not given here.

How the values were obtained:
human ASIC3 = conditions: simian-kidney-derived COS-7 cells; read-out: IC50, inhibition of human ASIC3; cited from earlier work
Excerpt: (§1) Table 2 Electrophysiological activity of sea anemone toxins of structural class 1b on homomeric acid-sensing ion channels (ASICs). | column: ASIC3

rat ASIC3 channel [1] = biological target: T1, rat ASIC3 channel (Rattus norvegicus, UniProt O35240); conditions: rat ASIC3, X. laevis oocytes according to footnote of Table 2; read-out: IC50, inhibition of ASIC3 (APETx2); cited from earlier work
T1 construct: expressed in transfected cells; host or cells: Xenopus laevis oocytes (cRNA injection)
T1 sequence (O35240 1-533): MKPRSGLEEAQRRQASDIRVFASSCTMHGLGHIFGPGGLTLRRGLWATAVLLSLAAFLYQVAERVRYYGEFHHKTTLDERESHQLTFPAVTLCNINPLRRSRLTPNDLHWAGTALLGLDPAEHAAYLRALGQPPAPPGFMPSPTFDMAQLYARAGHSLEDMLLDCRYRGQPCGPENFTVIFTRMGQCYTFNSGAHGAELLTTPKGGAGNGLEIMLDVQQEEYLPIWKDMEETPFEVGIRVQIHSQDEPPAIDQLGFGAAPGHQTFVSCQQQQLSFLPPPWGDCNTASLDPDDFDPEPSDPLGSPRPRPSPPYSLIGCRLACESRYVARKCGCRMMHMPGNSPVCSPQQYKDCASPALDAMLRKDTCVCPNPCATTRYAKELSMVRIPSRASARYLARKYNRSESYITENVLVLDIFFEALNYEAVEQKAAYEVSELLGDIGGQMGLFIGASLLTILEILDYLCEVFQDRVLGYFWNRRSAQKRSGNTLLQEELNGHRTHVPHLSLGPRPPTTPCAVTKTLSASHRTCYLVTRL
Excerpt: as §1

ASIC1a = conditions: cited from earlier work; for effect on ASIC1a gating state: desensitization: ref 21, closed state: ref 13, 20, 22
Excerpt: Animal toxins produced by spiders, snakes, and sea anemones are considered molecular instruments for the study of ASICs gating and promising drug precursors. […] Peptides from spiders and snakes inhibit mostly mammalian ASIC1a channels. […] Peptides Hcr 1b-3 and Hcr 1b-4, electrophysiologically examined in this study, are the closest homologues of Hcr 1b-1 and Hcr 1b-2 (78%–97% of identity) as well as APETx2 (46%–49% of identity) that are attributed to β-defensin-like peptides. […] (Table 2). Despite the absence of the crucial basic residue Arg17 [31] in the sequence ...

ASIC3 = conditions: cited from earlier work
[2] = cited from earlier work
Excerpt: Similarly to other APETx-like peptides, HcrTxs form four-stranded antiparallel β-sheets cross-linked by three disulfide bridges (C1–C5, C2–C4, C3–C6). Conforming to the obtained models, the short α-helix (22-24 aa) of HcrTxs localized within the flexible region between the second and third strands (Figure 3a). Hcr 1b-2, -3, -4, and APETx2 are very basic peptides (theoretical pI being of 9.53, 9.23, 9.26, and 9.33, respectively). Basic-aromatic clusters play an important role in the formation of complexes between the ASIC channel and peptide toxins PcTx1, mambalgin- ...

NaV1.2 = tested on: NaV1.2; design: method as in PMID 22972919; conditions: cited from earlier work
NaV1.8 = tested on: NaV1.8; design: method as in PMID 22972919; conditions: cited from earlier work
hERG = tested on: hERG; design: method as in 2 sources, ref 31 = [31]; PMID 25337890; doi:10.1021/jm501400p; 31. Jensen J.E. Cristofori-Armstrong B. Anangi R. Rosengren K.J. Lau C.H.Y. Mobli M. Brust A. Alewood P.F. King G.F. Rash L.D. Understanding the molecular basis of toxin promiscuity: The analgesic sea ||| ref 33 = [33]; PMID 12815161; doi:10.1124/mol.64.1.59; 33. Diochot S. APETx1, a new toxin from the sea anemone anthopleura elegantissima, blocks voltage-gated human ether-a-go-go-related gene potassium channels Mol. Pharmacol. 2003 64 59 69 10.1124/mol.64; conditions: cited from earlier work
ASIC1b = conditions: cited from earlier work
Excerpt: (§2) It is noteworthy that to increase the current through the ASICs it takes an order of magnitude higher concentration of toxins than to inhibit it. […] No ASIC3 ...

ASIC2a = conditions: cited from earlier work
Excerpt: as §2

KV3.1 = tested on: KV3.1; design: method as in PMID 9506974; conditions: cited from earlier work
KV3.4 = tested on: KV3.4; design: method as in PMID 16177043; conditions: cited from earlier work
NaV1.7 = tested on: NaV1.7; design: method as in PMID 22442564; conditions: TTX-sensitive NaV; read-out: EC50, NaV1.7 potentiation; cited from earlier work
TTX-resistant NaV = tested on: TTX-resistant NaV; design: method as in PMID 22442564; conditions: cited from earlier work
rat ASIC1a channel = biological target: T2, rat ASIC1a channel (Rattus norvegicus, UniProt P55926); experiment: Two-electrode voltage clamp, homomeric ASIC1a currents in Xenopus laevis oocytes; format: cell-based; conditions: for IC50: X. laevis oocytes, pH drop 7.8 to 5.5 (legend of Figure 4: from 7.4), peptide applied up to 15 s before, logistic fit, read-out: IC50, inhibition of rASIC1a current; for IC50 / A (response value at maximal inhibition, % of control), rASIC1a: mean ± SD, 5 cells; for A (response value at maximal inhibition, % of control), rASIC1a: fit parameter, pH drop to 5.5
T2 construct: expressed in transfected cells; host or cells: Xenopus laevis oocytes (cRNA injection)
T2 sequence (P55926 1-526): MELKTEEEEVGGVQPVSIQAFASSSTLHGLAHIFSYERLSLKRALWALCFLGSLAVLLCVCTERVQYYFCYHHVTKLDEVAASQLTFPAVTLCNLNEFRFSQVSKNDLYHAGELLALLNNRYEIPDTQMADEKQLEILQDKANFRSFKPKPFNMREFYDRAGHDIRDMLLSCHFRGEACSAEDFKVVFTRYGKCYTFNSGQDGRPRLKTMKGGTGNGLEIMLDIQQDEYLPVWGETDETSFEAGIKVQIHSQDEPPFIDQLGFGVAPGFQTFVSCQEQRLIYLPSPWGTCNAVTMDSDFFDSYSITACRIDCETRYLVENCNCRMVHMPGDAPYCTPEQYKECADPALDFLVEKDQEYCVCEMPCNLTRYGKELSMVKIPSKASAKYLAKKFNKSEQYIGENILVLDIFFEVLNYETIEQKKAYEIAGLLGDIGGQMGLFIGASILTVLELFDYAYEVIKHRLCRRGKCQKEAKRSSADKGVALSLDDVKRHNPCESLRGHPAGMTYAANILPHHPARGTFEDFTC
Procedure: (§3) The study of the pharmacological profile of the Hcr 1b-3 and Hcr 1b-4 peptides from H. crispa was carried out on two major ion channel subtypes, ASIC1a and ASIC3. Homomeric ASIC1a channels expressed in X. laevis oocytes were activated by a rapid pH drop from 7.8 to 5.5 in 15 s after peptide application. To analyze the effect of HcrTxs on the transient component of the ASIC3 current, the channels were activated by rapid extracellular acidification from pH 7.8 to 4.0, but effects on the sustained ASIC3 current were not studied. The inhibitory activity of three class 1b sea anemone toxins, APETx2, Hcr 1b-1, and Hcr 1b-2, towards ASICs was previously assayed in electrophysiological experiments (Table 2). In addition, we previously reported that the Hcr 1b-3 and Hcr 1b-4 peptides inhibited about 54% and 80% of the ASIC1a current, respectively.
(§4) Animal care and animal experiments were performed following the protocol approved by the Animal Care and Use Committee of the Shemyakin-Ovchinnikov Institute of Bioorganic Chemistry, Approval Code: 267/2018; Approval Date: 2 October 2018. RAS. Rat ASIC1a and ASIC3 channels were expressed in Xenopus laevis oocytes after injection of 2.5–10 ng of cRNA, as previously described. After injection oocytes were kept for 2–3 days at 19 °C and then up to 5 days at the temperature of 15–16 °C in sterile ND96 medium (96 mM NaCl, 2 mM KCl, 1.8 mM CaCl2, 1 mM MgCl2, 5 mM HEPES titrated to pH 7.4 with NaOH supplemented with 50 μg/mL of gentamycin). Two-electrode voltage clamp recordings were performed using GeneClamp 500 amplifier (Axon Instruments, Foster City, CA, USA). The data were filtered at 100 Hz and digitized at 1000 Hz by an AD converter L780 (LCard, Moscow, Russia) using in-house software. The solutions were applied to a cell chamber (volume 75 μL). The laminar flow of an external solution of ND96 (pH 7.8) was used at a rate of 1 mL/min. ASIC1a and ASIC3 were activated by a short pH drop from 7.8 to 5.5 or to 4.0 (10 mM MES or 10 mM acetic acid was used as the buffer solution, respectively) in supplementary 0.1% BSA solution. Peptides were applied for up to 15 s before the activation impulse. A value of currents inhibition was calculated as the ratio of the peak current amplitude when the peptide was applied to the average amplitude of the control peak currents before and after the peptide application and expressed as a percentage. To construct the concentration–response curves, a logistic equation was the following: y = ((1 – A)/(1 + ([C]/IC50) nH)) + A; where y is the relative value of current inhibition; C is the peptide concentration; IC50 is the half maximal inhibitory concentration; nH is the Hill coefficient; A is the response value at maximal inhibition (% of control). Calculations were carried out using software Origin 7.0. The data are presented as mean ± SD.

rat ASIC3 channel [3] = biological target: T1, rat ASIC3 channel; experiment: Two-electrode voltage clamp, homomeric ASIC3 transient currents in Xenopus laevis oocytes; format: cell-based; conditions: mean ± SD, 5 cells
Procedure: as §3
as §4, with “The data are presented as mean ± SD.” left out

[4] = tested on: models of cerebral ischemia, retinal stroke, optic nerve crush, and Parkinson’s disease; conditions: cited from earlier work
Excerpt: Animal toxins produced by spiders, snakes, and sea anemones are considered molecular instruments for the study of ASICs gating and promising drug precursors. […] Peptides from spiders and snakes inhibit mostly mammalian ASIC1a channels. Two of ASIC1a inhibitors from spiders, ...

**Q.** What does the source list for “APETx2: toxin from sea anemone Anthopleura elegantissima, ASIC3 inhibitor (GTACSCGNSKGIYWFYRPSCPTDRGYTGSCRYFLGTCCTPAD; UniProt P61542 1-42, looked up)”?
**A.** IC50 (human ASIC3): 175 nM; IC50 (rat ASIC3 channel [1]): 63 nM; effect on ASIC1a current (ASIC1a): no effect; IC50 (ASIC3; species not given, read-out: IC50, inhibition of ASIC3): 63 nM; effect on ASIC3 sustained component (ASIC3; sustained current): no effect; theoretical pI [2]: 9.33; IC50 (NaV1.2): 114 ± 25 nM; IC50 (NaV1.8): 55 ± 10 nM; IC50 (hERG): 1210 ± 50 nM; effect on ASIC1b current (ASIC1b): potentiate ASIC1b; effect on ASIC2a current (ASIC2a): potentiate ASIC1b and ASIC2a currents

**Q.** Which IC50 (KV3.1) does the source give for “BDS-I: toxin BDS-I from sea anemone A. sulcata (AAPCFCSGKPGRGDLWILRGTCPGGYGYTSNCYKWPNICCYPH; UniProt P11494 1-43, looked up)” here?
**A.** 47 nM

**Q.** What about the IC50 (KV3.4) of the same substance?
**A.** 220 nM

**Q.** And the EC50 (NaV1.7)?
**A.** ~3 nM

**Q.** What about the “effect on TTX-resistant NaV” value (TTX-resistant NaV) of the same substance?
**A.** weakly inhibits TTX-resistant NaV

**Q.** With “GTPCDCYGYTGVYWFMLSRCPSGYGYNLSCHYFMGICCVKR (disulfide 4-37, 6-30, 20-38) [Hcr 1b-4]” as the substance, how does the IC50 (rat ASIC1a channel) read?
**A.** 1250 ± 40 nM

**Q.** And the “A (response value at maximal inhibition, % of control), rASIC1a” value (rat ASIC1a channel)?
**A.** 13.7 ± 0.8%

**Q.** What about the EC50 (rat ASIC3 channel [3]; X. laevis oocytes, pH drop 7.8 to 4.0 (legend of Figure 4: from 7.4), potentiation, read-out: EC50, potentiation of transient rASIC3 current) of the same substance?
**A.** 1530 ± 70 nM

**Q.** And the “A, rASIC3 potentiation” value (rat ASIC3 channel [3]; fit parameter, pH drop to 4.0)?
**A.** 207.78 ± 1.56%

**Q.** What does the source list for “GTPCKCHGYIGVYWFMLAGCPDGYGYNLSCPYFLGICCVKK (disulfide 4-37, 6-30, 20-38) [Hcr 1b-3]”?
**A.** inhibition at 120 µM (rat ASIC1a channel; Hcr 1b-3 at 120 μM, Hcr 1b-4 from concentration–response relationship, read-out: maximal inhibition of ASIC1a current): 70%; IC50 (rat ASIC1a channel): 4950 ± 190 nM; A (response value at maximal inhibition, % of control), rASIC1a (rat ASIC1a channel): 30.3 ± 0.7%; IC50 (rat ASIC3 channel [3]; X. laevis oocytes, pH drop 7.8 to 4.0 (legend of Figure 4: from 7.4), logistic fit, read-out: IC50, inhibition of transient rASIC3 current): 17000 ± 5800 nM; A (response value at maximal inhibition, % of control), rASIC3 (rat ASIC3 channel [3]; fit parameter, pH drop to 4.0): 26 ± 7%

**Q.** Which results are given for “PcTx1: spider toxin from Psalmopoeus cambridgei (EDCIPKWKGCVNRHGDCCEGLECWKRRRSFEVCVPKTPKT; ends and bridges not checked; cysteine pairing not given here; UniProt P60514 1-40, looked up)”?
**A.** effect on ASIC1a gating state (ASIC1a): promote desensitization of ASIC1a; effect on ASIC1b current (ASIC1b): potentiate ASIC1b; neuroprotection [4]: effective neuroprotectors

**Q.** With “mambalgin-1: snake toxin from Dendroaspis polylepis (LKCYQHGKVVTCHRDMKFCYHNTGMPFRNLKLILQGCSSSCSETENNKCCSTDRCNK; UniProt P0DKR6 22-78, looked up)” as the substance, how does the “effect on ASIC1a gating state” value (ASIC1a) read?
**A.** stabilize the closed channels state
